In the PolyMetriX glass transition set one finds glass transition temperature data, which are given here for 54 molecules.

`*/C=C/c1ccc(N(c2ccc(/C=C/c3ccc4c5ccc(*)cc5n(CC(CC)CCCC)c4c3)cc2)c2ccc(OCC(CC)CCCC)cc2)cc1` (repeat unit): the glass transition temperature was 132.00 °C. As for `*C(=O)Nc1ccc(C2(c3ccc(NC(=O)c4ccc5c(c4)C(=O)N(c4ccc(-c6ccc(N7C(=O)c8ccc(*)cc8C7=O)c(OC)c6)cc4OC)C5=O)cc3)c3ccccc3-c3ccccc32)cc1` (repeat unit), the figure is 181.00 °C; as for `*C(=O)c1ccc2c(c1)C(=O)N(c1ccc(C3(C)CC(C)(C)c4ccc(N5C(=O)c6ccc(*)cc6C5=O)cc43)cc1)C2=O` (repeat unit), 320.00 °C; as for `*C(=O)c1ccc2c(c1)C(=O)N(c1ccc(N(c3ccc(C#N)cc3)c3ccc(N4C(=O)c5ccc(*)cc5C4=O)cc3)cc1)C2=O` (repeat unit), 315.00 °C. For the molecule `*C(=O)c1ccc2c(c1)C(=O)N(c1ccc(Oc3cccc(-c4cc(-c5ccccc5)cc(-c5cccc(Oc6ccc(N7C(=O)c8ccc(*)cc8C7=O)cc6)c5)n4)c3)cc1)C2=O` (repeat unit), the glass transition temperature was 260.00 °C.

In turn, `*C(=O)c1ccc2c(c1)C(=O)N(c1ccc(Oc3cccc(N4C(=O)c5ccc(*)cc5C4=O)c3)cc1)C2=O` (repeat unit) had a glass transition temperature of 280.50 °C. As for `*C(=O)c1ccc2c(c1)C(=O)N(c1ccc(Sc3ccc(N4C(=O)c5ccc(*)cc5C4=O)cn3)nc1)C2=O` (repeat unit), the figure is 246.00 °C; as for `*C(=O)c1ccc2c(c1)C(=O)N(c1cccc(C#Cc3cccc(N4C(=O)c5ccc(*)cc5C4=O)c3)c1)C2=O` (repeat unit), 294.00 °C.

`*CCCCOC(=O)c1ccc(C(C)(C)c2ccc(C(=O)O*)cc2)cc1` (repeat unit): the glass transition temperature was determined as 44.00 °C. The value for `*CCCCOC(=O)c1ccc([Si](C)(C)c2ccc(C(=O)O*)cc2)cc1` (repeat unit) was 42.00 °C.

`*CCCc1ccc(-c2c(-c3ccccc3)cc(-c3ccc(-c4cc(-c5ccccc5)c(-c5ccc(*)cc5)c(-c5ccccc5)c4-c4ccccc4)cc3)c(-c3ccccc3)c2-c2ccccc2)cc1` (repeat unit): the glass transition temperature was determined as 290.00 °C. The value for `*CCCc1ccc(-c2c(-c3ccccc3)cc(-c3cccc(-c4cc(-c5ccccc5)c(-c5ccc(*)cc5)c(-c5ccccc5)c4-c4ccccc4)c3)c(-c3ccccc3)c2-c2ccccc2)cc1` (repeat unit) was 240.00 °C. For `*CCOC(=O)c1ccc(C(C)(CC)c2ccc(C(=O)O*)cc2)cc1` (repeat unit), the glass transition temperature was 95.00 °C. Molecule `*CNC(=O)OCC(OC(=O)NCc1ccc(C(C)(C)c2ccc(*)o2)o1)c1ccco1` (repeat unit) came in with a glass transition temperature of 20.00 °C.

`*CNC(=O)OCCOC(=O)NCc1ccc(C(C)(C)c2ccc(*)o2)o1` (repeat unit) displayed a glass transition temperature of 50.00 °C. The value for `*CNC(=O)OCc1ccc(COC(=O)NCc2ccc(C(C)(C)c3ccc(*)o3)o2)o1` (repeat unit) was 55.00 °C; that for `*CNC(=O)OCc1cocc1COC(=O)NCc1ccc(C(C)(C)c2ccc(*)o2)o1` (repeat unit) was 25.00 °C; that for `*Cc1ccc(C(C)(C)c2ccc(CN3C(=O)c4ccc(-c5ccc6c(c5)C(=O)N(*)C6=O)cc4C3=O)o2)o1` (repeat unit) was 129.00 °C. The value for `*Cc1ccc(C(C)(C)c2ccc(CN3C(=O)c4ccc(C(c5ccc6c(c5)C(=O)N(*)C6=O)(C(F)(F)F)C(F)(F)F)cc4C3=O)o2)o1` (repeat unit) was 134.00 °C; that for `*Cc1ccc(C(C)(CC)c2ccc(Cn3c(=O)c4cc5c(=O)n(*)c(=O)c5cc4c3=O)o2)o1` (repeat unit) was 143.00 °C. The molecule `*Cc1ccc(C(C)(CCC)c2ccc(Cn3c(=O)c4cc5c(=O)n(*)c(=O)c5cc4c3=O)o2)o1` (repeat unit) came in with a glass transition temperature of 134.00 °C.

As for `*Cc1ccc(C(C)c2ccc(Cn3c(=O)c4cc5c(=O)n(*)c(=O)c5cc4c3=O)o2)o1` (repeat unit), the glass transition temperature was 116.00 °C. The value for `*OS(=O)(=O)c1cc(S(=O)(=O)Oc2ccc(C3(c4ccc(*)cc4)CCCCC3)cc2)ccc1C` (repeat unit) was 142.00 °C; that for `*Oc1ccc(C(=O)c2ccc(OC(=O)c3ccc(C(C)(C)c4ccc(C(*)=O)cc4)cc3)cc2)cc1` (repeat unit) was 130.00 °C; that for `*Oc1ccc(C(C)(C)c2ccc(OC(=O)c3ccc(C(C)(CC)c4ccc(C(*)=O)cc4)cc3)cc2)cc1` (repeat unit) was 211.00 °C.

Molecule `*Oc1ccc(C(c2ccc(Oc3ccc(C(=O)c4ccc(C(C)(C)c5ccc(C(=O)c6ccc(*)cc6)cc5)cc4)cc3)cc2)(C(F)(F)F)C(F)(F)F)cc1` (repeat unit) showed a glass transition temperature of 179.00 °C. The value for `*Oc1ccc(Cc2ccc(OC(=O)c3ccc(C(C)(C)c4ccc(C(*)=O)cc4)cc3)cc2)cc1` (repeat unit) was 140.00 °C; that for `*Oc1ccc(NC(=O)c2ccc(-c3ccc(C(=O)Nc4ccc(Oc5ccc(C(C)(C)c6ccc(*)cc6)cc5)cc4)c(C)c3)cc2C)cc1` (repeat unit) was 230.00 °C; that for `*Oc1ccc(NC(=O)c2ccc([Si](C)(C)c3ccc(C(*)=O)cc3)cc2)cc1` (repeat unit) was 220.00 °C.

In the case of `*Oc1ccc(OC(=O)c2ccc([Si](C)(C)c3ccc(C(*)=O)cc3)cc2)cc1` (repeat unit), the glass transition temperature turned out to be 176.00 °C. `*Oc1cccc(Oc2ccc(NC(=O)c3ccc(-c4ccc(C(=O)Nc5ccc(*)cc5)c(C)c4)cc3C)cc2)c1` (repeat unit): the glass transition temperature is 213.00 °C.

For `*Sc1ccc(C(=O)c2ccc(C(C)(C)c3ccc(C(=O)c4ccc(*)cc4)cc3)cc2)cc1` (repeat unit), the glass transition temperature stood at 175.00 °C.

`*c1ccc(-c2ccc(N3C(=O)c4ccc(-c5ccc6c(c5)C(=O)N(*)C6=O)cc4C3=O)c(C)c2)cc1C` (repeat unit) had a glass transition temperature of 302.00 °C.

As to `*c1ccc(C(*)C)cc1` (repeat unit), the glass transition temperature is 93.00 °C. As for `*c1ccc(C(C#N)(C(=O)O)C(*)(C#N)C(=O)O)cc1` (repeat unit), the figure is 108.00 °C; as for `*c1ccc(C(C#N)(C(=O)OCCCC)C(*)(C#N)C(=O)OCCCC)cc1` (repeat unit), 108.00 °C.

For the molecule `*c1ccc(C(Cl)(Cl)C(*)Cl)cc1` (repeat unit), the glass transition temperature stood at 160.00 °C.

In turn, `*c1ccc(C(c2ccc(C#N)cc2)c2ccc(N(*)c3ccc(C)cc3)cc2)cc1` (repeat unit) displayed a glass transition temperature of 230.00 °C. `*c1ccc(C(c2ccc(C(=O)OC)cc2)c2ccc(N(*)c3ccc(C)cc3)cc2)cc1` (repeat unit) displayed a glass transition temperature of 222.00 °C. As for `*c1ccc(C2(c3ccc(-c4cc(-c5ccccc5)c5cc(-c6ccc7nc(*)cc(-c8ccccc8)c7c6)ccc5n4)cc3)c3ccccc3-c3ccccc32)cc1` (repeat unit), the glass transition temperature was 420.00 °C. As for `*c1ccc(CCc2ccc(N3C(=O)C(=O)N(c4ccc(CCc5ccccc5N5C(=O)C(=O)N(*)C5=O)cc4)C3=O)cc2)cc1` (repeat unit), the figure is 220.00 °C; as for `*c1ccc(Cc2ccc(-n3nc(-c4ccccc4)cc3-c3ccc(-c4cc(-c5ccccc5)nn4*)cc3)cc2)cc1` (repeat unit), 252.00 °C; as for `*c1ccc(Cc2ccc(N3C(=O)C4CCC5C(=O)N(*)C(=O)C5C4C3=O)cc2)cc1` (repeat unit), 341.00 °C. Take `*c1ccc(Cc2ccc(N3C(=O)N(c4ccc(Cc5ccc(N6C(=O)N(*)C(C)(C)C6=O)cc5)cc4)C(=O)C3(C)C)cc2)cc1` (repeat unit): the glass transition temperature was determined as 259.50 °C. Molecule `*c1ccc(Cc2ccc(N3C(=O)c4c(c(-c5ccccc5)c(-c5ccc(Oc6ccc(-c7c(-c8ccccc8)c8c(c(-c9ccccc9)c7-c7ccccc7)C(=O)N(*)C8=O)cc6)cc5)c(-c5ccccc5)c4-c4ccccc4)C3=O)cc2)cc1` (repeat unit) displayed a glass transition temperature of 356.00 °C. Turning to `*c1ccc(Cc2ccc(N3C(=O)c4ccc(Oc5ccc(Oc6ccc7c(c6)C(=O)N(*)C7=O)cc5)cc4C3=O)c(C)c2C)c(C)c1C` (repeat unit), the glass transition temperature was 277.00 °C. With `*c1ccc(OC(=O)c2ccc([Si](C)(C)c3ccc(C(=O)Oc4ccc(C5(*)OC(=O)c6ccccc65)cc4)cc3)cc2)cc1` (repeat unit), the glass transition temperature was determined as 214.00 °C. For the molecule `*c1ccc(OC(=O)c2ccc([Si](C)(C)c3ccc(C(=O)Oc4ccc(C5(*)c6ccccc6C(=O)N5c5ccccc5)cc4)cc3)cc2)cc1` (repeat unit), the glass transition temperature came out at 255.00 °C. As for `*c1ccc(OCCCCCCOc2ccc(C3C4C(=O)N(c5ccc(N6C(=O)C7ON(C)C(*)C7C6=O)cc5)C(=O)C4ON3C)cc2)cc1` (repeat unit), the figure is 52.00 °C; as for `*c1ccc(Oc2ccc(-c3c(-c4ccccc4)c4c(c(-c5ccccc5)c3-c3ccccc3)C(=O)N(c3ccc(N5C(=O)c6c(c(-c7ccccc7)c(-c7ccccc7)c(*)c6-c6ccccc6)C5=O)cc3)C4=O)cc2)cc1` (repeat unit), 371.00 °C; as for `*c1ccc2c(c1)C(=O)N(c1ccc(-c3ccc(N4C(=O)c5ccc(C(*)(C(F)(F)F)C(F)(F)F)cc5C4=O)c(C)c3)cc1C)C2=O` (repeat unit), 352.00 °C.

For the molecule `*c1ccc2c(c1)C(=O)N(c1ccc(C3(c4ccc(N5C(=O)c6ccc(C(*)(C(F)(F)F)C(F)(F)F)cc6C5=O)c(C(C)C)c4)c4ccccc4-c4ccccc43)cc1C(C)C)C2=O` (repeat unit), the glass transition temperature came to 299.00 °C. Consider `*c1ccc2c(c1)C(=O)N(c1ccc(Oc3c(C(C)(C)C)cc(-c4ccc(N5C(=O)c6ccc(C(*)(C(F)(F)F)C(F)(F)F)cc6C5=O)cc4)cc3C(C)(C)C)c(C(F)(F)F)c1)C2=O` (repeat unit), for which the glass transition temperature was determined as 362.50 °C.

In turn, `*c1ccc2c(c1)C(=O)N(c1ccc(Oc3c(C(C)(C)C)cc(-c4ccc(N5C(=O)c6ccc(C(*)(C(F)(F)F)C(F)(F)F)cc6C5=O)cc4)cc3C(C)(C)C)cc1)C2=O` (repeat unit) returned a glass transition temperature of 355.00 °C.
